# Test results published in ChEMBL document CHEMBL2029318, “Synthesis and SAR of selective small molecule neuropeptide Y Y2 receptor antagonists” (Bioorg Med Chem Lett, 2012).
# The source made the active and inactive calls. How the calls were made is not given here.
# Tests used:
# [1] = biological target: T1, Neuropeptide Y receptor type 2 (Homo sapiens, UniProt P49146); assay: Partial antagonist activity at neuropeptide Y receptor Y2; format: functional
# T1 sequence (P49146 whole entry): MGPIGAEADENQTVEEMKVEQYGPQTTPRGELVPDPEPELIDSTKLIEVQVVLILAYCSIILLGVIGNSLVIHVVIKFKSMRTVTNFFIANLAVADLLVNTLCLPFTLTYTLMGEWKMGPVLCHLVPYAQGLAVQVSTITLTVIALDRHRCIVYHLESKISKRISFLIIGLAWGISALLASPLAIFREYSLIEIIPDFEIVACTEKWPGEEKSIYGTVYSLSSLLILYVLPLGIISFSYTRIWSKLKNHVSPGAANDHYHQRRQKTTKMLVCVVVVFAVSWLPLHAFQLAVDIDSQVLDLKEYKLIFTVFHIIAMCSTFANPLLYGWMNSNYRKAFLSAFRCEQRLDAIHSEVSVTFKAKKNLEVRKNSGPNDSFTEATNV
# [2] = biological target: T2, Neuropeptide Y receptor type 1 (Homo sapiens) (UniProt P25929); assay: Antagonist activity at neuropeptide Y receptor Y1 at 10 uM; format: functional
# T2 sequence (whole entry): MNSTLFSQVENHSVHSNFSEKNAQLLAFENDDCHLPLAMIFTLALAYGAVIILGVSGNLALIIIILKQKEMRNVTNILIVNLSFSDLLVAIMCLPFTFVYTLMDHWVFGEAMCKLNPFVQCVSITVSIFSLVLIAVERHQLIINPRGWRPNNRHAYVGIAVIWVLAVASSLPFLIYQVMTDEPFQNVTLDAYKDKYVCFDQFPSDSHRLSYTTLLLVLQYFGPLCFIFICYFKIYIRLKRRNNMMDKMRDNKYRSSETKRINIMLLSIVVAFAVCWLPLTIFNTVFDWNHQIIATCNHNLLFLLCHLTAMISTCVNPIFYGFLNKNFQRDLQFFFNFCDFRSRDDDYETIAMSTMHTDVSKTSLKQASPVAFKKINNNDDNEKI
smiles,measurement,setting,value
OC(c1ccccc1)(c1ccccc1)C1CCN(C(=S)Nc2ccc(N3CCCCC3)cc2)CC1,IC50,[1],271 nM
same,Activity,[2],inactive
